Data from PubChem BioAssay AID1845195 (Molecular Pharmacology Branch, DTP, NCI, 2023).

Tested on: 156681-154-R-J1 tumor spheroid viability
Experiment: Anticancer human tumor 156681-154-R-J1 patient-derived melanoma cell line growth inhibition
Details: spheroids with HUVEC and MSC; for IC50: curve of first compound; for viability, T/C: stronger effect = lower value
In short: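 Complex tumor spheroids combined malignant cells with endothelial cells and mesenchymal stem cells. DNA-damaging drugs and DNA repair inhibitors were tested alone and in combination, at half-log dilutions down from clinical Cmax (top 10 microM if Cmax unknown), 0.25% DMSO final.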
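Further: spheroids exposed to compounds for 7 days before readout.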
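Wherever viability, T/C is given: percent of vehicle control viability where 100% = DMSO-treated spheroids.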

## [2H]c1nc(C)nc([2H])c1-c1cc(NC[C@@H](C)c2cccc3c(C(=O)NC)ccnc23)ncn1 + COc1cc2c(cc1O)CCNC21CSC2c3c(OC(C)=O)c(C)c4c(c3C(COC1=O)N1C(O)C3Cc5cc(C)c(OC)c(O)c5C(C21)N3C)OCO4
Second compound 30 pM
  IC50: > 10000 nM
Second compound 94.9 pM
  IC50: > 10000 nM
Second compound 0.0003 µM
  IC50: > 10000 nM
Second compound 0.000949 µM
  IC50: < 31.6 nM
Second compound 0.003 µM
  IC50: < 31.6 nM
Second compound 30 pM, first compound 0.0316 µM
  viability, T/C: 91.3%
Second compound 30 pM, first compound 0.1 µM
  viability, T/C: 96%
Second compound 30 pM, first compound 0.316 µM
  viability, T/C: 109%
Second compound 30 pM, first compound 1 µM
  viability, T/C: 95.1%
Second compound 30 pM, first compound 3.16 µM
  viability, T/C: 92.3%
Second compound 30 pM, first compound 10 µM
  viability, T/C: 94%
Second compound 94.9 pM, first compound 0.0316 µM
  viability, T/C: 89.6%
Second compound 94.9 pM, first compound 0.1 µM
  viability, T/C: 111%
Second compound 94.9 pM, first compound 0.316 µM
  viability, T/C: 105%
Second compound 94.9 pM, first compound 1 µM
  viability, T/C: 85%
Second compound 94.9 pM, first compound 3.16 µM
  viability, T/C: 90.4%
Second compound 94.9 pM, first compound 10 µM
  viability, T/C: 76.8%
Second compound 0.0003 µM, first compound 0.0316 µM
  viability, T/C: 79.7%
Second compound 0.0003 µM, first compound 0.1 µM
  viability, T/C: 86.6%
Second compound 0.0003 µM, first compound 0.316 µM
  viability, T/C: 80%
Second compound 0.0003 µM, first compound 1 µM
  viability, T/C: 75.3%
Second compound 0.0003 µM, first compound 3.16 µM
  viability, T/C: 81.9%
Second compound 0.0003 µM, first compound 10 µM
  viability, T/C: 62.4%
Second compound 0.000949 µM, first compound 0.0316 µM
  viability, T/C: 6.44%
Second compound 0.000949 µM, first compound 0.1 µM
  viability, T/C: 4.98%
Second compound 0.000949 µM, first compound 0.316 µM
  viability, T/C: 4.24%
Second compound 0.000949 µM, first compound 1 µM
  viability, T/C: 4.33%
Second compound 0.000949 µM, first compound 3.16 µM
  viability, T/C: 3.62%
Second compound 0.000949 µM, first compound 10 µM
  viability, T/C: 3.23%
Second compound 0.003 µM, first compound 0.0316 µM
  viability, T/C: 0.26%
Second compound 0.003 µM, first compound 0.1 µM
  viability, T/C: 0.3%
Second compound 0.003 µM, first compound 0.316 µM
  viability, T/C: 0.22%
Second compound 0.003 µM, first compound 1 µM
  viability, T/C: 0.17%
Second compound 0.003 µM, first compound 3.16 µM
  viability, T/C: 0.17%
Second compound 0.003 µM, first compound 10 µM
  viability, T/C: 0.28%

## Cn1ncnc1[C@H]1c2n[nH]c(=O)c3cc(F)cc(c23)N[C@@H]1c1ccc(F)cc1 + COc1cc2c(cc1O)CCNC21CSC2c3c(OC(C)=O)c(C)c4c(c3C(COC1=O)N1C(O)C3Cc5cc(C)c(OC)c(O)c5C(C21)N3C)OCO4
Second compound 30 pM
  IC50: 1440 nM
Second compound 94.9 pM
  IC50: 688 nM
Second compound 0.0003 µM
  IC50: 97 nM
Second compound 0.000949 µM
  IC50: < 9.49 nM
Second compound 0.003 µM
  IC50: < 9.49 nM
Second compound 30 pM, first compound 0.00949 µM
  viability, T/C: 82%
Second compound 30 pM, first compound 0.03 µM
  viability, T/C: 91.7%
Second compound 30 pM, first compound 0.0949 µM
  viability, T/C: 97.9%
Second compound 30 pM, first compound 0.3 µM
  viability, T/C: 72.4%
Second compound 30 pM, first compound 0.949 µM
  viability, T/C: 70.9%
Second compound 30 pM, first compound 3 µM
  viability, T/C: 19.1%
Second compound 94.9 pM, first compound 0.00949 µM
  viability, T/C: 97.5%
Second compound 94.9 pM, first compound 0.03 µM
  viability, T/C: 80.7%
Second compound 94.9 pM, first compound 0.0949 µM
  viability, T/C: 91.9%
Second compound 94.9 pM, first compound 0.3 µM
  viability, T/C: 73.3%
Second compound 94.9 pM, first compound 0.949 µM
  viability, T/C: 40.8%
Second compound 94.9 pM, first compound 3 µM
  viability, T/C: 14%
Second compound 0.0003 µM, first compound 0.00949 µM
  viability, T/C: 48.5%
Second compound 0.0003 µM, first compound 0.03 µM
  viability, T/C: 53.7%
Second compound 0.0003 µM, first compound 0.0949 µM
  viability, T/C: 51%
Second compound 0.0003 µM, first compound 0.3 µM
  viability, T/C: 36.6%
Second compound 0.0003 µM, first compound 0.949 µM
  viability, T/C: 15.2%
Second compound 0.0003 µM, first compound 3 µM
  viability, T/C: 11.3%
Second compound 0.000949 µM, first compound 0.00949 µM
  viability, T/C: 10%
Second compound 0.000949 µM, first compound 0.03 µM
  viability, T/C: 4.38%
Second compound 0.000949 µM, first compound 0.0949 µM
  viability, T/C: 4.05%
Second compound 0.000949 µM, first compound 0.3 µM
  viability, T/C: 2.68%
Second compound 0.000949 µM, first compound 0.949 µM
  viability, T/C: 1%
Second compound 0.000949 µM, first compound 3 µM
  viability, T/C: 0.14%
Second compound 0.003 µM, first compound 0.00949 µM
  viability, T/C: 0.15%
Second compound 0.003 µM, first compound 0.03 µM
  viability, T/C: 0.14%
Second compound 0.003 µM, first compound 0.0949 µM
  viability, T/C: 0.55%
Second compound 0.003 µM, first compound 0.3 µM
  viability, T/C: 0.12%
Second compound 0.003 µM, first compound 0.949 µM
  viability, T/C: 0.13%
Second compound 0.003 µM, first compound 3 µM
  viability, T/C: 0.18%
